From BindingDB's records for patent US20250313563 (The Broad Institute, 2025)
Where “and” joins values, the source holds several entries; their conditions need not be identical. Identical values can stand only once.

Columns and labels:
[1] = biological target: Glycogen synthase kinase-3 alpha (Homo sapiens, UniProt P49840); test: TR-FRET Assay
In short: (§1)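 30 min preinc w/ cpd in assay buffer → kinase rxn → EDTA quench → add detection mix (40 nM SA-d2, 2 nM Tb-pSer641 Ab) → TR-FRET read.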

[2] = biological target: Glycogen synthase kinase-3 beta (Homo sapiens, UniProt P49841); test: TR-FRET Assay
In short: as §1

Sequence of Glycogen synthase kinase-3 beta (P49841 whole entry): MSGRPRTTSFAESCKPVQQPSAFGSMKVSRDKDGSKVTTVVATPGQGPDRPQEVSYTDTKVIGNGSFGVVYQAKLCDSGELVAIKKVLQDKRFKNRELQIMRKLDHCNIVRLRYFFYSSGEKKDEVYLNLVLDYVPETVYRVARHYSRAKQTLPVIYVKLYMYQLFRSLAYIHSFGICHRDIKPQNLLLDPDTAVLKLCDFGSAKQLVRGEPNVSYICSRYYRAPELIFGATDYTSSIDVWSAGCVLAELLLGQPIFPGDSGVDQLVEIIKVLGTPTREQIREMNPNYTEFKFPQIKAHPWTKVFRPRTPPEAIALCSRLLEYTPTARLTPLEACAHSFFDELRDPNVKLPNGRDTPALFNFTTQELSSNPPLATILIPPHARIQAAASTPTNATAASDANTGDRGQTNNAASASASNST
Sequence of Glycogen synthase kinase-3 alpha (P49840 whole entry): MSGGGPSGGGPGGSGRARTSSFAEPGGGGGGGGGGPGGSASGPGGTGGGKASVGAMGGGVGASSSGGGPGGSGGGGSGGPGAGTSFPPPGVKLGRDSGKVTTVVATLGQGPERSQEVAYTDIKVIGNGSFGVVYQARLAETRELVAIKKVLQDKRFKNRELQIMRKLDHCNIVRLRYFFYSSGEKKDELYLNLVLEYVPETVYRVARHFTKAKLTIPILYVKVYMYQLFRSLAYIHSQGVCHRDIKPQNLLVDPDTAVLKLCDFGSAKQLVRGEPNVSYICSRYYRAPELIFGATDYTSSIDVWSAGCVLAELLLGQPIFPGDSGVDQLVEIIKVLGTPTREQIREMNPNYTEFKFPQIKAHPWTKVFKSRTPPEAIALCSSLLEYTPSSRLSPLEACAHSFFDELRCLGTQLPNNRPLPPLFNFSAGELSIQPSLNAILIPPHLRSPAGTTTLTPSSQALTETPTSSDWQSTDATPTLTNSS

| SMILES | IC50 [1] | IC50 [2] |
| --- | --- | --- |
| C[C@@H]1C[C@]2(CCN1S(=O)(=O)c1ccn(C)n1)C1=C(N=NC1)NC1=C2C(=O)CC(C)(C)C1 [US20250313563, Compound 917161] | < 100 nM | < 100 nM |
| Cc1cccc2c1CC[C@]21C2=C(N=NC2)NC2=C1C(=O)CC(C)(C)C2 [US20250313563, Compound 913137] | > 5000 nM | > 5000 nM |
| CC[C@]1(c2cccc(C(F)(F)F)c2)C2=CN=NC2NC2=C1C(=O)N(C)C[C@H]2C (some centres undefined) [US20250313563, Compound 883980] | < 100 nM and 100 to 1000 nM | < 100 nM and 1000 to 5000 nM |
| CCC1(c2cccc(N3C[C@H](C)C[C@H](C)C3)c2)C2=CN=NC2NC2=C1C(=O)CC(C)(C)C2 (some centres undefined) [US20250313563, Compound 885237] | 100 to 1000 nM | 1000 to 5000 nM |
| CC[C@]1(c2cccc(N3C[C@@H](C)[C@H](C)C3)c2)C2=CN=NC2NC2=C1C(=O)CC(C)(C)C2 (some centres undefined) [US20250313563, Compound 924504] | 100 to 1000 nM | 100 to 1000 nM |
| CC[C@@]1(c2cccc(-c3cnn(Cc4cccc(F)c4F)c3)c2)C2=CN=NC2NC2=C1C(=O)NC(C)(C)C2 (some centres undefined) [US20250313563, Compound 951840] | < 100 nM | 100 to 1000 nM |
| CC1(C)CC(=O)C2=C(C1)NC1=C(CN=N1)[C@@]21CCN(S(=O)(=O)c2ccccc2F)C1 [US20250313563, Compound 945719] | < 100 nM | < 100 nM |
| CC1(C)CC(=O)C2=C(C1)NC1=C(CN=N1)[C@@]21CCO[C@@H](C(F)(F)F)C1 [US20250313563, Compound 884024] | 1000 to 5000 nM | > 5000 nM |
| Cn1ccc(S(=O)(=O)N2CC[C@]3(C2)C2=C(N=NC2)NC2=C3C(=O)CC(C)(C)C2)n1 [US20250313563, Compound 945714] | < 100 nM | < 100 nM |
| CC[C@@]1(c2cccc(-c3c(F)cncc3OC)c2)C2=CN=NC2NC2=C1C(=O)NC(C)(C)C2 (some centres undefined) [US20250313563, Compound 948150] | < 100 nM | < 100 nM and 100 to 1000 nM |
| CCC1(c2cccc(C(F)(F)F)c2)C2=C(N=NC2)NC2=C1C(=O)NC2 (centres undefined) [US20250313563, Compound 913156] | 100 to 1000 nM | > 5000 nM |
| CC[C@]1(c2cccc(-c3ccncc3F)c2)C2=C(CC(C)(C)NC2=O)NC2N=NC(F)=C21 (some centres undefined) [US20250313563, Compound 949643] | > 5000 nM | > 5000 nM |
| CC[C@@]1(c2cccc(-c3cc(C)ncc3OC)c2)C2=CN=NC2NC2=C1C(=O)NC(C)(C)C2 (some centres undefined) [US20250313563, Compound 949512] | 1000 to 5000 nM | > 5000 nM |
| CC[C@@]1(c2cccc(-c3ccnc(OC)c3F)c2)C2=CN=NC2NC2=C1C(=O)NC(C)(C)C2 (some centres undefined) [US20250313563, Compound 948531] | 100 to 1000 nM | > 5000 nM |
| CCC1(c2cccc(-c3ccnc(OC)n3)c2)C2=CN=NC2NC2=C1C(=O)CC(C)(C)C2 (centres undefined) [US20250313563, Compound 948092] | < 100 nM | < 100 nM |
| CC[C@@]1(c2cccc(C3=C4CC=C(Cl)C=C4N=CC3)c2)C2=CN=NC2NC2=C1C(=O)NC(C)(C)C2 (some centres undefined) [US20250313563, Compound 948368] | < 100 nM | 100 to 1000 nM |
| CC1(C)CC(=O)C2=C(C1)NC1=C(CN=N1)C21CN(CC(F)F)C1 [US20250313563, Compound 912073] | 100 to 1000 nM | 100 to 1000 nM |
| CC[C@]1(c2cccc(-c3cc(C)ncc3OC)c2)C2=CN=NC2NC2=C1C(=O)NC(C)(C)C2 (some centres undefined) [US20250313563, Compound 949522] | < 100 nM | 100 to 1000 nM |
| Cc1cc(C)cc(C(=O)N2CC3(C2)C[C@@]2(CO3)C3=C(N=NC3)NC3=C2C(=O)CC(C)(C)C3)c1 [US20250313563, Compound 948223] | < 100 nM and 100 to 1000 nM | < 100 nM and 100 to 1000 nM |
| CCC1(c2cccc(S(C)(=O)=O)c2)C2=C(CC(C)(C)NC2=O)NC2N=NC(C)=C21 (centres undefined) [US20250313563, Compound 947395B:] | < 100 nM | < 100 nM |
| CC[C@]1(c2cccc(-c3c(Cl)cncc3Cl)c2)C2=CN=NC2NC2=C1C(=O)NC(C)(C)C2 (some centres undefined) [US20250313563, Compound 948824] | 1000 to 5000 nM | > 5000 nM |
| CCC1(c2cccc(-c3c(C)cnn3C)c2)C2=CN=NC2NC2=C1C(=O)CC(C)(C)C2 (centres undefined) [US20250313563, Compound 947491] | < 100 nM | < 100 nM |
| CC1(C)CC(=O)C2=C(C1)NC1=C(CN=N1)C21CCN(S(=O)(=O)c2ccc(F)c(F)c2)CC1 [US20250313563, Compound 948119] | < 100 nM | < 100 nM |
| CCC1(c2cccc(N(C)c3nccc(C)n3)c2)C2=CN=NC2NC2=C1C(=O)CC(C)(C)C2 (centres undefined) [US20250313563, Compound 942642] | < 100 nM | < 100 nM and 1000 to 5000 nM |

The next lines start with the values.

| IC50 [1] | IC50 [2] | SMILES |
| --- | --- | --- |
| < 100 nM | < 100 nM | CCC1(c2cccc(N(c3cccnc3)C(C)C)c2)C2=CN=NC2NC2=C1C(=O)CC(C)(C)C2 (centres undefined) [US20250313563, Compound 885344] |
| 1000 to 5000 nM and > 5000 nM | > 5000 nM | CC[C@@]1(c2cccc(Cc3ncccn3)c2)C2=CN=NC2NC2=C1C(=O)CC(C)(C)C2 (some centres undefined) [US20250313563, Compound 947499] |
| < 100 nM | < 100 nM | Cc1cc(S(=O)(=O)N2CCC3(CC2)C2=C(N=NC2)NC2=C3C(=O)CC(C)(C)C2)ccn1 [US20250313563, Compound 947481] |
| 100 to 1000 nM | 1000 to 5000 nM | CC[C@@]1(c2ccccc2)C2=CN=NC2NC2=C1C(=O)[C@@H](C)C[C@@H]2C (some centres undefined) [US20250313563, Compound 865198] |
| < 100 nM | 100 to 1000 nM | O=C1CC2(CCOC2)CC2=C1C1(CCOCC1)C1=C(N=NC1)N2 (centres undefined) [US20250313563, Compound 889573] |
| 100 to 1000 nM | 1000 to 5000 nM | CC1(C)CC(=O)C2=C(C1)NC1=C(CN=N1)[C@]21CO[C@H](C2CC2)C1 [US20250313563, Compound 913184] |
| 100 to 1000 nM | 100 to 1000 nM | CC[C@]1(c2ccccc2)C2=CN=NC2NC2=C1C(=O)C[C@@](C)(C(F)(F)F)C2 (some centres undefined) [US20250313563, Compound 819568] |
| 1000 to 5000 nM | > 5000 nM | CC[C@@]1(c2cccc(C(F)(F)F)c2)C2=C(N=NC2)NC2=C1C(=O)CC2 [US20250313563, Compound 951566] |
| < 100 nM | < 100 nM and 100 to 1000 nM | CCC1(c2cccc(N3CCCCC3)c2)C2=C(CC(C)(C)NC2=O)NC2N=NC(C(F)(F)F)=C21 (centres undefined) [US20250313563, Compound 947861] |
| < 100 nM and 100 to 1000 nM | < 100 nM and 1000 to 5000 nM | CCOc1ccc(S(=O)(=O)N2CCC3(CC2)C2=C(N=NC2)NC2=C3C(=O)CC(C)(C)C2)cc1 [US20250313563, Compound 945670] |
| 100 to 1000 nM | > 5000 nM | CC[C@@]1(c2cccc(-c3cnn(C(C)C)c3F)c2)C2=CN=NC2NC2=C1C(=O)NC(C)(C)C2 (some centres undefined) [US20250313563, Compound 950061] |
| 1000 to 5000 nM | > 5000 nM | CC1(C)CC(=O)C2=C(C1)NC1=C(CN=N1)C2(c1ccccc1)c1ccccc1 [US20250313563, Compound 789461] |
| < 100 nM | 100 to 1000 nM | CC[C@@H]1CCN1c1cccc([C@@]2(CC)C3=CN=NC3NC3=C2C(=O)CC(C)(C)C3)c1 (some centres undefined) [US20250313563, Compound 911970] |
| < 100 nM | < 100 nM | CC1(C)CC(=O)C2=C(C1)NC1=C(CN=N1)C21CCN(S(=O)(=O)c2ccc(C(F)(F)F)cc2)CC1 [US20250313563, Compound 947256] |
| < 100 nM | < 100 nM and 100 to 1000 nM | CC[C@]1(c2cccc(-c3c(C)nn(C)c3C)c2)C2=C(CC(C)(C)CC2=O)NC2N=NC(C)=C21 (some centres undefined) [US20250313563, Compound 913043] |
| < 100 nM | < 100 nM | CCC1(c2cccc(-c3ccncc3CO)c2)C2=CN=NC2NC2=C1C(=O)CC(C)(C)C2 (centres undefined) [US20250313563, Compound 943539] |
| 1000 to 5000 nM | > 5000 nM | CC[C@]1(c2cccc(-c3ccncc3C(F)(F)F)c2)C2=CN=NC2NC2=C1C(=O)NC(C)(C)C2 (some centres undefined) [US20250313563, Compound 949516] |
| < 100 nM and 100 to 1000 nM | 100 to 1000 nM and > 5000 nM | CC[C@@]1(c2cccc(-c3cnn(C)c3C(F)(F)F)c2)C2=CN=NC2NC2=C1C(=O)NC(C)(C)C2 (some centres undefined) [US20250313563, Compound 948815] |
| < 100 nM | 100 to 1000 nM | CCC1(c2cccc(N(C)c3cc(C)cc(C)n3)c2)C2=CN=NC2NC2=C1C(=O)CC(C)(C)C2 (centres undefined) [US20250313563, Compound 943538] |
| > 5000 nM | > 5000 nM | CC[C@]1(c2cccc(N(C)c3cc(C)ccn3)c2)C2=CN=NC2NC2=C1C(=O)CC(C)(C)C2 (some centres undefined) [US20250313563, Compound 945616] |
| < 100 nM | < 100 nM and 100 to 1000 nM | CC[C@@]1(c2cccc(-c3cnn(C)c3)c2)C2=C(CC(C)(C)NC2=O)NC2N=NC(C(F)F)=C21 (some centres undefined) [US20250313563, Compound 949919] |
| 100 to 1000 nM | > 1670 nM | CCC1(c2cccc(OCCOC)c2)C2=CN=NC2NC2=C1C(=O)CC(C)(C)C2 (centres undefined) [US20250313563, Compound 801446] |
| < 100 nM | 100 to 1000 nM | CC1(C)CC(=O)C2=C(C1)NC1N=NC=C1C21CCN(S(=O)(=O)c2cnc3n2CCC3)CC1 (centres undefined) [US20250313563, Compound 947467] |
| 100 to 1000 nM | 1000 to 5000 nM | CC1(C)CC(=O)C2=C(C1)NC1=C(CN=N1)C21CCC(C(=O)N2CCCC2)CC1 (centres undefined) [US20250313563, Compound 945394] |
| < 100 nM | < 100 nM | CCC1(c2cccc(N(C)c3ccnc(F)c3)c2)C2=CN=NC2NC2=C1C(=O)CC(C)(C)C2 (centres undefined) [US20250313563, Compound 917146] |
| < 100 nM | < 100 nM | CC1(C)CC(=O)C2=C(C1)NC1=C(CN=N1)C21CN(S(=O)(=O)C2CCCCC2)C1 [US20250313563, Compound 918275] |
| 100 to 1000 nM | 100 to 1000 nM | CC1(C)CC(=O)C2=C(C1)NC1=C(CN=N1)C21CCN(S(=O)(=O)c2ccc(F)cn2)CC1 [US20250313563, Compound 947251] |
| 100 to 1000 nM | 1000 to 5000 nM | CC[C@]1(c2cccc(C(F)(F)F)c2)C2=C(N=NC2)NC2=C1C(=O)N(C)C2 [US20250313563, Compound 945367] |
